Assay [1] concerns the target T1, NK1-receptor (substance P-receptor) (Homo sapiens, UniProt P25103).
T1 construct: cloned NK1 -receptors on human lymphoblastoma cells (IM-9); endogenous in cells; host or cells: IM-9 human lymphoblastoma cells
Put plainly: NK1-receptor (substance P-receptor) affinity: displacement of 125I-labelled substance P on IM-9 cells. In kind it is binding. On the procedure: (§1) The receptor affinity at the NK1 -receptor (substance P-receptor) was determined with cloned NK1 -receptors on human lymphoblastoma cells (IM-9), whereby the displacement of ^125 I-labelled substance P is measured. The NK2 -binding test is carried out on transfixed A20 cells which represent the human NK2 receptor. The displacement of ^125 I-BN-neusolinine A is determined.
(In general: Displacement assays read how much labelled ligand stays bound in the presence of the test substance.)

Assay [2] concerns the target T2, human NK2 receptor (Homo sapiens, UniProt P21452).
T2 construct: expressed in transfected cells; host or cells: A20 cells
T2 sequence (P21452 1-398): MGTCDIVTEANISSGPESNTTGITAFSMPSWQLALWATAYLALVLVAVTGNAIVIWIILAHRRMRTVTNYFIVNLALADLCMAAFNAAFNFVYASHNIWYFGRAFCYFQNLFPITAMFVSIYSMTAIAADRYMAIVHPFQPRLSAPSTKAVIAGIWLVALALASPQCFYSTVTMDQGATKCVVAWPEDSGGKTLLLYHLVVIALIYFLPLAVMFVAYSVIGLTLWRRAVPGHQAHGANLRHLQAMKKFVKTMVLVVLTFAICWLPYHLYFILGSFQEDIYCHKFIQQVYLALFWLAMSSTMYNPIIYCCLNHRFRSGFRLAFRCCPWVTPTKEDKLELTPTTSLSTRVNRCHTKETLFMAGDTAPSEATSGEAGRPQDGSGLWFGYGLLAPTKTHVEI
Put plainly: NK2-binding test: displacement of 125I-labelled ligand on A20 cells which represent the human NK2 receptor. As to conditions: transfixed A20 cells (human NK2 receptor); displacement of 125I-BN-neusolinine A. On the procedure: as §1

Where [3] appears, read: cloned NK1-receptors on human lymphoblastoma cells (IM-9), displacement of 125I-labelled substance P, read-out: NK1 IC50.

Structures are written as SMILES. Like-named read-outs stand apart in the source and are kept apart here.

T1 sequence (P25103 whole entry): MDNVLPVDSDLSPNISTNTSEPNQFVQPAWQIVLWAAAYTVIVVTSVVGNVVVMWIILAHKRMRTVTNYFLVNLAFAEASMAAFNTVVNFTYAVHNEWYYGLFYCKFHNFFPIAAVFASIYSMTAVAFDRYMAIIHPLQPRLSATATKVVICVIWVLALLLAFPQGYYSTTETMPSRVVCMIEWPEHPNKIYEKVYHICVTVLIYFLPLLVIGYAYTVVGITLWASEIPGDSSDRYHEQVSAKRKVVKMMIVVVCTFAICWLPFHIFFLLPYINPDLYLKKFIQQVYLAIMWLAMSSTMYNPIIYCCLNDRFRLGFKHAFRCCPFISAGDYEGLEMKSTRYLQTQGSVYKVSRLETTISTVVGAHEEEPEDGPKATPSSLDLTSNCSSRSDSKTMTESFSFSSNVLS

The IC50 is the midpoint of a concentration-inhibition curve. For `CC(C)c1ccccc1N1CCN(C(=O)[C@H](Cc2ccc3ccccc3c2)NC(=O)[C@@H]2C[C@@H](O)CN2C(=O)C2C(=O)C3(C)CCC2C3(C)C)CC1` (stereo partly drawn) [Compound 4], the values for the 50% inhibitory concentration (IC50) in assay [1] (setting [3]) and in assay [2] were 5 nM and 110 nM, respectively. For `CC12CCC(C(C(=O)N3C[C@H](O)C[C@H]3C(=O)N[C@@H](Cc3ccc4ccccc4c3)C(=O)N3CCN(C4CCCCC4)CC3)C1=O)C2(C)C` (stereo partly drawn) [Compound 9], the IC50 in assay [1] (setting [3]) turned out to be 17 nM. As to `CCOC(=O)c1ccccc1N1CCN(C(=O)[C@H](Cc2ccc3ccccc3c2)NC(=O)[C@@H]2C[C@@H](O)CN2C(=O)C2C(=O)C3(C)CCC2C3(C)C)CC1` (stereo partly drawn) [Compound 7], the figures for the half-inhibitory concentration (IC50) in assay [1] (setting [3]) and in assay [2] were 0.45 nM and 44 nM, respectively.

Take `CC12CCC(C(C(=O)N3C[C@H](O)C[C@H]3C(=O)N[C@@H](Cc3ccc4ccccc4c3)C(=O)N3CCN(c4ccccc4Cl)CC3)C1=O)C2(C)C` (stereo partly drawn) [Compound 8]: the values for the half-inhibitory concentration (IC50) in assay [1] (setting [3]) and in assay [2] were 3 nM and 18 nM, respectively. Consider `CN(Cc1ccccc1)C(=O)[C@H](Cc1ccc2ccccc2c1)NC(=O)[C@@H]1C[C@@H](O)CN1C(=O)C1C(=O)C2(C)CCC1C2(C)C` (stereo partly drawn) [Compound 27], for which the values for the IC50 in assay [1] (setting [3]) and in assay [2] were 0.5 nM and 450 nM, respectively. Take `COc1ccccc1N1CCN(C(=O)[C@H](Cc2ccc3ccccc3c2)NC(=O)[C@@H]2C[C@@H](O)CN2C(=O)C2CCCCC2O)CC1` (stereo partly drawn) [Compound 21]: the results for the IC50 in assay [1] (setting [3]) and in assay [2] were 20 nM and 130 nM, respectively. For `COc1ccccc1N1CCN(C(=O)[C@H](Cc2ccc3ccccc3c2)NC(=O)[C@@H]2C[C@@H](O)CN2C(=O)C2CCCCC2=O)CC1` (stereo partly drawn) [Compound 25] the same measures were 18 nM and 880 nM. Consider `COc1ccc(N2CCN(C(=O)[C@H](Cc3ccc4ccccc4c3)NC(=O)[C@@H]3C[C@@H](O)CN3C(=O)C3C(=O)C4(C)CCC3C4(C)C)CC2)c(C)c1` (stereo partly drawn) [Compound 5], for which the IC50 amounted to 11 nM in assay [1] (setting [3]) and 117 nM in assay [2].

Take `CCc1ccccc1CN(C)C(=O)[C@H](Cc1c[nH]c2ccccc12)NC(=O)[C@@H]1C[C@@H](O)CN1C(=O)C1C(=O)C2(C)CCC1C2(C)C` (stereo partly drawn) [Compound 44]: the IC50 is 5.1 nM in assay [1] (setting [3]) and 39 nM in assay [2]. For `CSc1ccccc1N1CCN(C(=O)[C@H](Cc2ccc3ccccc3c2)NC(=O)[C@@H]2C[C@@H](O)CN2C(=O)C2C(=O)C3(C)CCC2C3(C)C)CC1` (stereo partly drawn) [Compound 14] the same measures were 3.1 nM and 240 nM. For `Cc1ccccc1CN(C)C(=O)[C@H](Cc1c[nH]c2ccccc12)NC(=O)[C@@H]1CCCN1C(=O)C1C(=O)C2(C)CCC1C2(C)C` (stereo partly drawn) [Compound 47] the same measures were 3.2 nM and 57 nM. For the compound `Cc1ccccc1N1CCN(C(=O)[C@H](Cc2ccc3ccccc3c2)NC(=O)[C@@H]2C[C@@H](O)CN2C(=O)C2C(=O)C3(C)CCC2C3(C)C)CC1` (stereo partly drawn) [Compound 3], the results for the IC50 in assay [1] (setting [3]) and in assay [2] were 3 nM and 65 nM, respectively. As for `COc1ccccc1N1CCN(C(=O)[C@H](Cc2ccc3ccccc3c2)NC(=O)[C@@H]2C[C@@H](O)CN2C(=O)C2C3CC4C(C3=O)C42)CC1` (stereo partly drawn) [Compound 17], the concentration for half-maximal inhibition (IC50) in assay [1] (setting [3]) came out at 7 nM; in assay [2], 93 nM. In the case of `CC12CCC(C(C(=O)N3C[C@H](O)C[C@H]3C(=O)N[C@@H](Cc3ccc4ccccc4c3)C(=O)N3CCN(C(c4ccc(F)cc4)c4ccc(F)cc4)CC3)C1=O)C2(C)C` (stereo partly drawn) [Compound 10], the IC50 in assay [1] (setting [3]) was determined as 200 nM. For the compound `COc1ccccc1N1CCN(C(=O)[C@H](Cc2ccc3ccccc3c2)NC(=O)[C@@H]2C[C@@H](O)CN2C(=O)C23CCC(C)(C(=O)O2)C3(C)C)CC1` (stereo partly drawn) [Compound 24], the IC50 came out at 3.3 nM in assay [1] (setting [3]) and 1240 nM in assay [2]. For `COc1ccccc1N1CCN(C(=O)[C@H](Cc2ccc3ccccc3c2)NC(=O)[C@@H]2C[C@@H](O)CN2C(=O)C2CC3C=CC2(OC)CC3)CC1` (stereo partly drawn) [Compound 19] the same measures were 26 nM and 600 nM. `CC12CCC(C(C(=O)N3C[C@H](O)C[C@H]3C(=O)N[C@@H](Cc3ccc4ccccc4c3)C(=O)N3CCN(c4ccc5ccccc5c4)CC3)C1=O)C2(C)C` (stereo partly drawn) [Compound 13]: the IC50 in assay [1] (setting [3]) turned out to be 105 nM; in assay [2], 780 nM.

With `CCOc1ccccc1N1CCN(C(=O)[C@H](Cc2ccc3ccccc3c2)NC(=O)[C@@H]2C[C@@H](O)CN2C(=O)C2C(=O)C3(C)CCC2C3(C)C)CC1` (stereo partly drawn) [Compound 15], the IC50 turned out to be 3.2 nM in assay [1] (setting [3]) and 38 nM in assay [2]. For `CC12CCC(C(C(=O)N3C[C@H](O)C[C@H]3C(=O)N[C@@H](Cc3ccc4ccccc4c3)C(=O)N3CCN(c4ccccc4C#N)CC3)C1=O)C2(C)C` (stereo partly drawn) [Compound 16], in that order: 0.7 nM and 19 nM.

`COc1ccccc1CN1C(=O)C(NC(=O)[C@@H]2C[C@@H](O)CN2C(=O)C2C(=O)C3(C)CCC2C3(C)C)Cc2cc(OC)c(OC)cc21` (stereo partly drawn) [Compound 28]: the IC50 in assay [1] (setting [3]) is 23 nM; in assay [2], 1500 nM.

For `CC12CCC(C(C(=O)N3C[C@H](O)C[C@H]3C(=O)N[C@@H](Cc3c[nH]c4ccccc34)C(=O)N3CCN(c4ccccc4C#N)CC3)C1=O)C2(C)C` (stereo partly drawn) [Compound 26], in assay [1] (setting [3]), the IC50 was 28 nM.

Turning to `Cc1ccccc1CN(C)C(=O)[C@H](Cc1cn(C)c2ccccc12)NC(=O)[C@@H]1C[C@@H](O)CN1C(=O)C1C(=O)C2(C)CCC1C2(C)C` (stereo partly drawn) [Compound 45], the 50% inhibitory concentration (IC50) worked out at 4.9 nM in assay [1] (setting [3]) and 59 nM in assay [2]. Regarding `COc1ccccc1N1CCN(C(=O)[C@H](Cc2ccc3ccccc3c2)NC(=O)[C@@H]2C[C@@H](O)CN2S(=O)(=O)CC23CCC(CC2=O)C3(C)C)CC1` (stereo partly drawn) [Compound 20], the concentration for half-maximal inhibition (IC50) in assay [1] (setting [3]) is 26 nM; in assay [2], 350 nM.

`CC12CCC(C(C(=O)N3C[C@H](O)C[C@H]3C(=O)N[C@@H](Cc3ccc4ccccc4c3)C(=O)N3CCN(c4ccccc4[N+](=O)[O-])CC3)C1=O)C2(C)C` (stereo partly drawn) [Compound 11]: in assay [1] (setting [3]), the IC50 was 3.2 nM. `COc1ccccc1N1CCN(C(=O)[C@H](Cc2ccc3ccccc3c2)NC(=O)[C@@H]2C[C@@H](O)CN2C(=O)C2CC3CCC2(OC)CC3)CC1` (stereo partly drawn) [Compound 23]: the IC50 in assay [1] (setting [3]) turned out to be 14 nM; in assay [2], 140 nM.

As for `CN(Cc1ccccc1Cl)C(=O)[C@H](Cc1c[nH]c2ccccc12)NC(=O)[C@@H]1C[C@@H](O)CN1C(=O)C1C(=O)C2(C)CCC1C2(C)C` (stereo partly drawn) [Compound 42], the concentration for half-maximal inhibition (IC50) worked out at 1.2 nM in assay [1] (setting [3]) and 54 nM in assay [2].

Take `CC12CCC(C(C(=O)N3C[C@H](O)C[C@H]3C(=O)N[C@@H](Cc3ccc4ccccc4c3)C(=O)N3CCN(c4ccccn4)CC3)C1=O)C2(C)C` (stereo partly drawn) [Compound 6]: the 50% inhibitory concentration (IC50) in assay [1] (setting [3]) was found to be 45 nM. Turning to `CN(Cc1ccccc1Br)C(=O)[C@H](Cc1c[nH]c2ccccc12)NC(=O)[C@@H]1C[C@@H](O)CN1C(=O)C1C(=O)C2(C)CCC1C2(C)C` (stereo partly drawn) [Compound 43], the figures for the IC50 in assay [1] (setting [3]) and in assay [2] were 1.2 nM and 21 nM, respectively.

With `Cc1ccccc1CN(C)C(=O)[C@H](Cc1c[nH]c2ccccc12)NC(=O)[C@@H]1C[C@@H](O)CN1C(=O)C1C(=O)C2(C)CCC1C2(C)C` (single isomer, unassigned) [Compound 2], the IC50 in assay [1] (setting [3]) came out at 3.6 nM; in assay [2], 21 nM. As to `COc1ccccc1N1CCN(C(=O)[C@H](Cc2ccc3ccccc3c2)NC(=O)[C@@H]2C[C@@H](O)CN2C(=O)C2C(O)C3CCN2CC3)CC1` (stereo partly drawn) [Compound 22], the IC50 in assay [1] was 25 nM; in assay [2], 1300 nM. With `COc1ccccc1N1CCN(C(=O)[C@H](Cc2ccc3ccccc3c2)NC(=O)[C@@H]2C[C@@H](O)CN2C(=O)C2C(=O)C3(C)CCC2C3(C)C)CC1` (single isomer, unassigned) [Compound 1], the half-inhibitory concentration (IC50) in assay [1] (setting [3]) was determined as 3.1 nM; in assay [2] it was 21 nM.

As to `CC12CCC(C(C(=O)N3C[C@H](O)C[C@H]3C(=O)N[C@@H](Cc3ccc4ccccc4c3)C(=O)N3CCN(c4ccccc4O)CC3)C1=O)C2(C)C` (stereo partly drawn) [Compound 12], the half-inhibitory concentration (IC50) in assay [1] (setting [3]) came to 5.6 nM. As to `COc1ccccc1N1CCN(C(=O)[C@H](Cc2ccc3ccccc3c2)NC(=O)[C@@H]2C[C@@H](O)CN2C(=O)C2C3CCC(C)(C2O)C3(C)C)CC1` (stereo partly drawn) [Compound 18], the values for the IC50 in assay [1] (setting [3]) and in assay [2] were 8 nM and 16 nM, respectively.

The values are drawn from patent US5712273A, “Amino acid derivatives, processes for the manufacture thereof and pharmaceutical compositions (II) containing these compounds” (Boehringer Ingelheim GmbH, priority 1994, dated 1998).
